Laboratory results published in patent US20230303631A1, “METHOD FOR INDUCING IMMUNITY TO SARS-CoV-2” (RIKEN, priority 2020, published 2023).
Where no end group is shown, it is not given here.

Tests used:
[1] = system: CD8 single-positive T cells; assay: Intracellular cytokine staining (IFN-γ, TNF-α) after restimulation with individual 15mer peptides; assay type: cell-based, human; settings: for INF-γ production by CD8 single-positive T cells / TNF-α production by CD8 single-positive T cells: PBMCs of 4 healthy volunteers with HLA-A2402, cultured with 15mer mixture (each 10 μg/ml) and IL-2, restimulated with individual 15mer for 16 hours, FIG. 3
Experimental: Culture was carried out for 21 days in presence of IL-2 and a peptide and stimulation with a peptide was carried out in the presence of brefeldin and monensin in the same manner as in Example 1, and then, INF-γ production was examined. More specifically, to PBMCs of 4 healthy volunteers (HV) with HLA-A2402, a mixture of 15mer peptides was added such that the concentration of each peptide became 10 μg/ml. The PBMCs were cultured in the presence of IL-2. As a result, T cells having a binding affinity to a peptide in contact with them survive. Autogenous PBMCs were pulsed with a mixture of 15mer peptides every week, irradiated with 40 Gy and added to the above culture as a feeder. On Day 14 and 21, the mixture of 15mer peptides was further added. Thereafter, the culture obtained was pulsed with individual 15mer peptides and cultured for 16 hours in the presence of brefeldin and monensin to induce INF-γ production. Intracellular cytokine staining (anti-IFN-g-APC, anti-TNF-α-PE) were performed and peptide-specific cytokine producing CD8T cells were analyzed.

[2] = system: CD8 single-positive T cells; settings: PBMCs of healthy donors HD1 to HD5, peptide 10 μM, 21 days with IL-2, then 16 hours with peptide, brefeldin A and monensin; FIG. 1
[3] = system: A24-C1R cells

| Sequence | INF-γ production by CD8 single-positive T cells [1] | TNF-α production by CD8 single-positive T cells [1] | ratio of INF-γ-positive, TNF-α-positive CD8T cells (stimulation of T cells) ([1]; comparison among the 15mer peptides, FIG. 4) | induction of IFN-γ production in CD8 single-positive T cells (cytotoxic T cells) [2] | antigen-specific cytotoxic action of CTLs on peptide-pulsed A24-C1R cells [3] |
| --- | --- | --- | --- | --- | --- |
| QYIKWPWYIWLGFIA [15mer-3] | increased | increased | stimulated T cells most satisfactorily | – | – |
| QYIKWPWYI [pep #4, QYIKWPWYI] | – | – | – | strong induction of IFN-γ production | exhibited antigen-specific cytotoxic action |
| WPWYIWLGFIAGLIA [15mer-4] | increased | increased | – | – | – |
| GKYEQYIKWPWYIWL [15mer-2] | increased | increased | – | – | – |
